Target: T1, recombinant, membrane-bound mPGES-1 (Homo sapiens, UniProt O14684)
T1 sequence (O14684 1-152): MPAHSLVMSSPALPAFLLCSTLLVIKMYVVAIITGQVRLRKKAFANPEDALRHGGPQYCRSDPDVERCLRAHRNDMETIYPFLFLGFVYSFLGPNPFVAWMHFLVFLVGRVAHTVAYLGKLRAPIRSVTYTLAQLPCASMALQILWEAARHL
Experiment: Thiobarbituric acid assay (TBA-MDA assay), inhibition of mPGES-1
Type: biochemical
Details: remaining PGH2 measured at 535 nm
From the text: Malondialdehyde is a product of lipid peroxidation and reacts with thiobarbituric acid forming a red product that absorbs at 535 nm (W. G. Niehaus, Jr and B. Samuelsson, Eur. J. Biochem 6, 126 (1968). The extinction coefficient of the TBA-MDA conjugate is 1.56×10^5 M^−1 cm^−1 (E. D. Wills. Biochem. J. 113, 315 (1969).
The method used for detection of inhibition of mPGES-1 is based on the detection of the amount of remaining PGH2. This method was described more than 20 years ago by Basevich et al (Bioorg. Khim. 1983, 9(5), 658-665.
The assay used was a modified variant and used citric acid instead of the TCA-TBA-HCl reagent described in the original assay. In this assay recombinant, membrane-bound mPGES-1 was incubated with PGH2. The reaction was stopped by adding citric acid with a final pH of 3 and a large excess of FeCl2 (20 mM) to convert any remaining PGH2 into MDA and […]. TBA reagent was finally added (0.67%) and the samples were heated at 80° C. for 30 min. The absorbance of the conjugate was measured at 535 nm.
The product of mPGES-1 (PGE2) was not measured directly in this assay, but rather the remaining substrate (PGH2) indirectly by adding FeCl2 that converts PGH2 into […] and 12-HHT. As a positive control a known mPGES-1 inhibitor, MK-886, was used and the new inhibitors were compared with the inhibition of MK-886 (% of MK-886 inhibition).

In the case of O=C(NCc1ccccc1)c1cccc(NC(=O)c2ccccc2Cl)c1 [Compound 2, 3-(2-Chloro-benzoylamino)-N-benzyl-benzamide], the IC50 is reported as 5800 nM.

Compound Cc1cc(NC(=O)c2cccc(NC(=O)c3ccccc3Cl)c2)c2ccccc2n1 [Compound 3, 3-(2-Chloro-benzoylamino)-N-(2-methyl-quinolin-4-yl)-benzamide] has an IC50 of 1100 nM.

CCCCNC(=O)c1cccc(NC(=O)c2ccccc2Cl)c1 [Compound 4, 3-(2-Chloro-benzoylamino)-N-butyl-benzamide] was tested, and the IC50 was 3900 nM.

In the case of O=C(NC(c1ccccc1)c1ccccc1)c1cccc(NC(=O)c2ccccc2Cl)c1 [Compound 6, 3-(2-Chloro-benzoylamino)-N-(diphenylyl-methyl)-benzamide], the IC50 is reported as 300 nM.

Compound O=C(Nc1ccc2ccccc2n1)c1cccc(NC(=O)c2ccccc2Cl)c1 [Compound 9, 3-(2-Chloro-benzoylamino)-N-(quinolin-2-yl-)-benzamide] has an IC50 of 600 nM.

Work on O=C(Nc1ccccn1)c1cccc(NC(=O)c2ccccc2Cl)c1 [Compound 12, 3-(2-Chloro-benzoylamino)-N-(pyridine-2-yl)-benzamide] yielded an IC50 of 1300 nM.

O=C(Nc1nc2ccccc2[nH]1)c1cccc(NC(=O)c2ccccc2Cl)c1 [Compound 13, 3-(2-Chloro-benzoylamino)-N-(1H-benzimidazol-2-yl)-benzamide] gave an IC50 of 1300 nM.

O=C(Nc1ccc2ncsc2c1)c1cccc(NC(=O)c2ccccc2Cl)c1 [Compound 14, 3-(2-Chloro-benzoylamino)-N-(benzothiazol-6-yl)-benzamide] was tested, and the IC50 was 900 nM.

O=C(Nc1cccc(C(=O)Nc2ccc3ccccc3n2)c1)c1ccccc1 [Compound 17, 3-Benzoylamino-N-quinolin-2-yl-benzamide] gave an IC50 of 3500 nM.

O=C(Nc1cccc(C(=O)Nc2ccc3ccccc3n2)c1)c1cccc(Cl)c1 [Compound 29, 3-(3-Chloro-benzoylamino)-N-quinolin-2-yl-benzamide] showed an IC50 of 4200 nM.

O=C(NC1CCCc2ccccc21)c1cccc(NC(=O)c2ccccc2Cl)c1 (stereo not drawn) [Compound 35, 3-(2-Chloro-benzoylamino)-N-(1,2,3,4-tetrahydro-naphthalen-1-yl)-benzamide] was tested, and the IC50 was 860 nM.

O=C(NC1CCCCCC1)c1cccc(NC(=O)c2ccccc2Cl)c1 [Compound 36, 3-(2-Chloro-benzoylamino)-N-cycloheptyl-benzamide] gave an IC50 of 330 nM.

For O=C(Nc1ccc2ccccc2n1)c1cccc(NC(=O)c2ccccc2Br)c1 [Compound 38, 3-(2-Bromo-benzoylamino)-N-quinolin-2-yl-benzamide], the IC50 was 140 nM.

O=C(Nc1ccc2ccccc2n1)c1cccc(NC(=O)c2c(Cl)cccc2Cl)c1 [Compound 40, 3-(2,6-Chloro-benzoylamino)-N-quinolin-2-yl-benzamide] was tested, and the IC50 was 800 nM.

Compound COc1ccccc1C(=O)Nc1cccc(C(=O)Nc2ccc3ccccc3n2)c1 [Compound 41, 3-(2-Methoxy-benzoylamino)-N-quinolin-2-yl-benzamide] has an IC50 of 3700 nM.

COc1cccc(OC)c1C(=O)Nc1cccc(C(=O)Nc2ccc3ccccc3n2)c1 [Compound 42, 3-(2,6-Dimethoxy-benzoylamino)-N-quinolin-2-yl-benzamide] gave an IC50 of 3100 nM.

In the case of O=C(Nc1ccc2ccccc2n1)c1cccc(NC(=O)c2ccccc2C(F)(F)F)c1 [Compound 43, 3-(2-Trifluoromethyl-benzoylamino)-N-quinolin-2-yl-benzamide], the IC50 is reported as 190 nM.

Work on Cc1ccccc1C(=O)Nc1cccc(C(=O)Nc2ccc3ccccc3n2)c1 [Compound 44, 3-(2-Methyl-benzoylamino)-N-quinolin-2-yl-benzamide] yielded an IC50 of 650 nM.

O=C(Nc1ccc2ccccc2n1)c1cccc(NC(=O)c2ccccc2I)c1 [Compound 46, 3-(2-Iodo-benzoylamino)-N-quinolin-2-yl-benzamide] showed an IC50 of 290 nM.

Work on O=C(Nc1ccc2ccccc2n1)c1cccc(NC(=O)c2ccccc2-c2cccs2)c1 [Compound 49, 3-(2-Thiophene-2-yl-benzoylamino)-N-quinolin-2-yl-benzamide] yielded an IC50 of 1200 nM.

In the case of CC(=O)Oc1ccccc1C(=O)Nc1cccc(C(=O)Nc2ccc3ccccc3n2)c1 [Compound 50, Acetic acid 2-[3-(quinolin-2-ylcarbamoyl)-phenylcarbamoyl]-phenyl ester], the IC50 is reported as 3000 nM.

CCc1ccccc1C(=O)Nc1cccc(C(=O)Nc2ccc3ccccc3n2)c1 [Compound 52, 3-(2-Ethyl-benzoylamino)-N-quinolin-2-yl-benzamide] was tested, and the IC50 was 6900 nM.

O=C(Nc1ccc2ccccc2n1)c1cccc(NC(=O)c2ccccc2[N+](=O)[O-])c1 [Compound 53, 3-(2-Nitro-benzoylamino)-N-quinolin-2-yl-benzamide] showed an IC50 of 500 nM.

With O=C(Nc1cccc(C(=O)NC2CCCCCC2)c1)c1cc(C(F)(F)F)cc(C(F)(F)F)c1 [Compound 54, N-(3-Cycloheptylcarbamoyl-phenyl)-3,5-bis-trifluoromethyl-benzamide] the IC50 was 1200 nM.

O=C(NC1CCCCCC1)c1cccc(NC(=O)c2c(Cl)cccc2Cl)c1 [Compound 55, 2,6-Dichloro-N-(3-cycloheptylcarbamoyl-phenyl)-benzamide] showed an IC50 of 630 nM.

O=C(NC1CCCCCC1)c1cccc(NC(=O)c2ccccc2C(F)(F)F)c1 [Compound 56, N-(3-Cycloheptylcarbamoyl-phenyl)-2-trifluoromethylbenzamide] was tested, and the IC50 was 660 nM.

Work on Cc1ccccc1C(=O)Nc1cccc(C(=O)NC2CCCCCC2)c1 [Compound 57, N-(3-Cycloheptylcarbamoyl-phenyl)-2-methylbenzamide] yielded an IC50 of 390 nM.

In the case of O=C(NC1CCCCCC1)c1cccc(NC(=O)c2ccccc2F)c1 [Compound 63, N-(3-Cycloheptylcarbamoyl-phenyl)-2-fluorobenzamide], the IC50 is reported as 460 nM.

COc1cccc(OC)c1C(=O)Nc1cccc(C(=O)NC2CCCCCC2)c1 [Compound 65, N-(3-Cycloheptylcarbamoyl-phenyl)-2,6-dimethoxy-benzamide] was tested, and the IC50 was 6900 nM.

With CC(=O)Oc1ccccc1C(=O)Nc1cccc(C(=O)NC2CCCCCC2)c1 [Compound 66, Acetic acid 2-(3-cycloheptylcarbamoyl-phenylcarbamoyl)-phenyl ester] the IC50 was 9900 nM.

For O=C(NC1CCCCCC1)c1cccc(NC(=O)c2ccccc2Br)c1 [Compound 68, 2-Bromo-N-(3-cycloheptylcarbamoyl-phenyl)-benzamide], the IC50 was 180 nM.

Compound O=C(NC1CCCCCC1)c1cccc(NC(=O)c2ccccc2I)c1 [Compound 69, N-(3-Cycloheptylcarbamoyl-phenyl)-2-iodo-benzamide] has an IC50 of 260 nM.

C[C@H](NC(=O)c1cccc(NC(=O)c2ccccc2Br)c1)c1cccc2ccccc12 [Compound 72, 2-Bromo-N-[3-((S)-1-naphthalen-1-yl-ethylcarbamoyl)-phenyl]-benzamide] gave an IC50 of 230 nM.

Work on C[C@H](NC(=O)c1cccc(NC(=O)c2ccccc2F)c1)c1cccc2ccccc12 [Compound 73, 2-Fluoro-N-[3-((S)-1-naphthalen-1-yl-ethylcarbamoyl)-phenyl]-benzamide] yielded an IC50 of 1800 nM.

Compound C[C@H](NC(=O)c1cccc(NC(=O)c2c(Cl)cccc2Cl)c1)c1cccc2ccccc12 [Compound 74, 2,6-Dichloro-N-[3-((S)-1-naphthalen-1-yl-ethylcarbamoyl)-phenyl]-benzamide] has an IC50 of 470 nM.

In the case of COc1cccc(OC)c1C(=O)Nc1cccc(C(=O)N[C@@H](C)c2cccc3ccccc23)c1 [Compound 76, 2,6-Dimethoxy-N-[3-((S)-1-naphthalen-1-yl-ethylcarbamoyl)-phenyl]-benzamide], the IC50 is reported as 4100 nM.

Cc1ccccc1C(=O)Nc1cccc(C(=O)N[C@@H](C)c2cccc3ccccc23)c1 [Compound 78, 2-Methyl-N-[3-((S)-1-naphthalen-1-yl-ethylcarbamoyl)-phenyl]-benzamide] was tested, and the IC50 was 690 nM.

Work on C[C@H](NC(=O)c1cccc(NC(=O)c2ccccc2Cl)c1)c1cccc2ccccc12 [Compound 85, 2-Chloro-N-[3-((S)-1-naphthalen-1-yl-ethylcarbamoyl)-phenyl]-benzamide] yielded an IC50 of 370 nM.

C[C@@H](NC(=O)c1cccc(NC(=O)c2ccccc2Br)c1)c1cccc2ccccc12 [Compound 87, 2-Bromo-N-[3-((R)-1-naphthalen-1-yl-ethylcarbamoyl)-phenyl]-benzamide] gave an IC50 of 380 nM.

In the case of C[C@@H](NC(=O)c1cccc(NC(=O)c2ccccc2F)c1)c1cccc2ccccc12 [Compound 88, 2-Fluoro-N-[3-((R)-1-naphthalen-1-yl-ethylcarbamoyl)-phenyl]-benzamide], the IC50 is reported as 2300 nM.

Work on C[C@@H](NC(=O)c1cccc(NC(=O)c2c(Cl)cccc2Cl)c1)c1cccc2ccccc12 [Compound 89, 2,6-Dichloro-N-[3-((R)-1-naphthalen-1-yl-ethylcarbamoyl)-phenyl]-benzamide] yielded an IC50 of 600 nM.

With COc1cccc(OC)c1C(=O)Nc1cccc(C(=O)N[C@H](C)c2cccc3ccccc23)c1 [Compound 92, 2,6-Dimethoxy-N-[3-((R)-1-naphthalen-1-yl-ethylcarbamoyl)-phenyl]-benzamide] the IC50 was 1300 nM.

Reference: patent US20100324086A1, “COMPOUNDS AND METHODS” (Novasaid AB, priority 2008, published 2010)
